Legend:
Assay in all cases: cells
Conditions in all cases: Homo sapiens
P30-OHK = format: functional, cell-based
Description: SANGER: Inhibition of human P30-OHK cell growth in a cell viability assay.

KGN = format: functional, cell-based
Description: SANGER: Inhibition of human KGN cell growth in a cell viability assay.

ATN-1 = format: functional, cell-based
Description: SANGER: Inhibition of human ATN-1 cell growth in a cell viability assay.

NCI-H526 = format: functional, cell-based
Description: SANGER: Inhibition of human NCI-H526 cell growth in a cell viability assay.

SJSA-1 = format: functional, cell-based
Description: SANGER: Inhibition of human SJSA-1 cell growth in a cell viability assay.

SK-MEL-2 = format: functional, cell-based
Description: SANGER: Inhibition of human SK-MEL-2 cell growth in a cell viability assay.

CAS-1 = format: functional, cell-based
Description: SANGER: Inhibition of human CAS-1 cell growth in a cell viability assay.

MN-60 = format: functional, cell-based
Description: SANGER: Inhibition of human MN-60 cell growth in a cell viability assay.

EC-GI-10 = format: functional, cell-based
Description: SANGER: Inhibition of human EC-GI-10 cell growth in a cell viability assay.

EFO-21 = format: functional, cell-based
Description: SANGER: Inhibition of human EFO-21 cell growth in a cell viability assay.

KYSE-410 = format: functional, cell-based
Description: SANGER: Inhibition of human KYSE-410 cell growth in a cell viability assay.

PANC-08-13 = format: functional, cell-based
Description: SANGER: Inhibition of human PANC-08-13 cell growth in a cell viability assay.

EW-11 = format: functional, cell-based
Description: SANGER: Inhibition of human EW-11 cell growth in a cell viability assay.

LU-139 = format: functional, cell-based
Description: SANGER: Inhibition of human LU-139 cell growth in a cell viability assay.

SK-MEL-1 = format: functional, cell-based
Description: SANGER: Inhibition of human SK-MEL-1 cell growth in a cell viability assay.

EFM-19 = format: functional, cell-based
Description: SANGER: Inhibition of human EFM-19 cell growth in a cell viability assay.

KARPAS-299 = format: functional, cell-based
Description: SANGER: Inhibition of human KARPAS-299 cell growth in a cell viability assay.

GB-1 = format: functional, cell-based
Description: SANGER: Inhibition of human GB-1 cell growth in a cell viability assay.

RCC10RGB = format: functional, cell-based
Description: SANGER: Inhibition of human RCC10RGB cell growth in a cell viability assay.

OVCAR-4 = format: functional, cell-based
Description: SANGER: Inhibition of human OVCAR-4 cell growth in a cell viability assay.

PSN1 = format: functional, cell-based
Description: SANGER: Inhibition of human PSN1 cell growth in a cell viability assay.

NCI-H69 = format: functional, cell-based
Description: SANGER: Inhibition of human NCI-H69 cell growth in a cell viability assay.

NCI-H1770 = format: functional, cell-based
Description: SANGER: Inhibition of human NCI-H1770 cell growth in a cell viability assay.

HH = format: functional, cell-based
Description: SANGER: Inhibition of human HH cell growth in a cell viability assay.

LS-123 = format: functional, cell-based
Description: SANGER: Inhibition of human LS-123 cell growth in a cell viability assay.

A498 = format: functional, cell-based
Description: SANGER: Inhibition of human A498 cell growth in a cell viability assay.

SF-268 = format: functional, cell-based
Description: SANGER: Inhibition of human SF268 cell growth in a cell viability assay.

LB2241-RCC = format: functional, cell-based
Description: SANGER: Inhibition of human LB2241-RCC cell growth in a cell viability assay.

NH-12 = format: functional, cell-based
Description: SANGER: Inhibition of human NH-12 cell growth in a cell viability assay.

SK-N-FI = format: functional, cell-based
Description: SANGER: Inhibition of human SK-N-FI cell growth in a cell viability assay.

TGBC1TKB = format: functional, cell-based
Description: SANGER: Inhibition of human TGBC1TKB cell growth in a cell viability assay.

SH-4 = format: functional, cell-based
Description: SANGER: Inhibition of human SH-4 cell growth in a cell viability assay.

NCI-H1355 = format: functional, cell-based
Description: SANGER: Inhibition of human NCI-H1355 cell growth in a cell viability assay.

LAN-6 = format: functional, cell-based
Description: SANGER: Inhibition of human LAN-6 cell growth in a cell viability assay.

HEL = format: functional, cell-based
Description: SANGER: Inhibition of human HEL cell growth in a cell viability assay.

NCI-H1092 = format: functional, cell-based
Description: SANGER: Inhibition of human NCI-H1092 cell growth in a cell viability assay.

M14 = format: functional, cell-based
Description: SANGER: Inhibition of human M14 cell growth in a cell viability assay.

L-363 = format: functional, cell-based
Description: SANGER: Inhibition of human L-363 cell growth in a cell viability assay.

TE-1 = format: functional, cell-based
Description: SANGER: Inhibition of human TE-1 cell growth in a cell viability assay.

RXF 393 = format: functional, cell-based
Description: SANGER: Inhibition of human RXF393 cell growth in a cell viability assay.

NCI-H1838 = format: functional, cell-based
Description: SANGER: Inhibition of human NCI-H1838 cell growth in a cell viability assay.

NCI-H446 = format: functional, cell-based
Description: SANGER: Inhibition of human NCI-H446 cell growth in a cell viability assay.

ES6 = format: functional, cell-based
Description: SANGER: Inhibition of human ES6 cell growth in a cell viability assay.

SCH = format: functional, cell-based
Description: SANGER: Inhibition of human SCH cell growth in a cell viability assay.

KG-1 = format: functional, cell-based
Description: SANGER: Inhibition of human KG-1 cell growth in a cell viability assay.

TE-11 = format: functional, cell-based
Description: SANGER: Inhibition of human TE-11 cell growth in a cell viability assay.

LU-134-A = format: functional, cell-based
Description: SANGER: Inhibition of human LU-134-A cell growth in a cell viability assay.

VM-CUB-1 = format: functional, cell-based
Description: SANGER: Inhibition of human VM-CUB-1 cell growth in a cell viability assay.

KURAMOCHI = format: functional, cell-based
Description: SANGER: Inhibition of human KURAMOCHI cell growth in a cell viability assay.

NCI-H630 = format: functional, cell-based
Description: SANGER: Inhibition of human NCI-H630 cell growth in a cell viability assay.

NKM-1 = format: functional, cell-based
Description: SANGER: Inhibition of human NKM-1 cell growth in a cell viability assay.

Lu-65 = format: functional, cell-based
Description: SANGER: Inhibition of human LU-65 cell growth in a cell viability assay.

LB2518-MEL = format: functional, cell-based
Description: SANGER: Inhibition of human LB2518-MEL cell growth in a cell viability assay.

MV4-11 = format: functional, cell-based, MV-4-11
Description: SANGER: Inhibition of human MV-4-11 cell growth in a cell viability assay.

HuP-T4 = format: functional, cell-based
Description: SANGER: Inhibition of human HuP-T4 cell growth in a cell viability assay.

EKVX = format: functional, cell-based
Description: SANGER: Inhibition of human EKVX cell growth in a cell viability assay.

no-11 = format: functional, cell-based
Description: SANGER: Inhibition of human no-11 cell growth in a cell viability assay.

G-401 = format: functional, cell-based
Description: SANGER: Inhibition of human G-401 cell growth in a cell viability assay.

COLO-320-HSR = format: functional, cell-based
Description: SANGER: Inhibition of human COLO-320-HSR cell growth in a cell viability assay.

LU-99A = format: functional, cell-based
Description: SANGER: Inhibition of human LU-99A cell growth in a cell viability assay.

SW982 = format: functional, cell-based
Description: SANGER: Inhibition of human SW982 cell growth in a cell viability assay.

NCI-H23 = format: functional, cell-based
Description: SANGER: Inhibition of human NCI-H23 cell growth in a cell viability assay.

IST-MES1 = format: functional, cell-based
Description: SANGER: Inhibition of human IST-MES1 cell growth in a cell viability assay.

EW-13 = format: functional, cell-based
Description: SANGER: Inhibition of human EW-13 cell growth in a cell viability assay.

NCI-H720 = format: functional, cell-based
Description: SANGER: Inhibition of human NCI-H720 cell growth in a cell viability assay.

## COc1cc(Nc2c(C#N)cnc3cc(OCCCN4CCN(C)CC4)c(OC)cc23)c(Cl)cc1Cl [BOSUTINIB]
P30-OHK
  IC50: > 2 µM
KGN
  IC50: > 2 µM
ATN-1
  IC50: > 2 µM
NCI-H526
  IC50: 1.99 µM
SJSA-1
  IC50: > 2 µM
SK-MEL-2
  IC50: > 2 µM
CAS-1
  IC50: > 2 µM
MN-60
  IC50: > 2 µM
EC-GI-10
  IC50: > 2 µM
EFO-21
  IC50: > 2 µM
KYSE-410
  IC50: > 2 µM
PANC-08-13
  IC50: > 2 µM
EW-11
  IC50: > 2 µM
LU-139
  IC50: > 2 µM
SK-MEL-1
  IC50: > 2 µM
EFM-19
  IC50: > 2 µM
KARPAS-299
  IC50: > 2 µM
GB-1
  IC50: > 2 µM
RCC10RGB
  IC50: > 2 µM
OVCAR-4
  IC50: > 2 µM
PSN1
  IC50: > 2 µM
NCI-H69
  IC50: > 2 µM
NCI-H1770
  IC50: > 2 µM
HH
  IC50: > 2 µM
LS-123
  IC50: > 2 µM
A498
  IC50: 1.4 µM
SF-268
  IC50: > 2 µM
LB2241-RCC
  IC50: 0.537 µM
NH-12
  IC50: > 2 µM
SK-N-FI
  IC50: > 2 µM
TGBC1TKB
  IC50: > 2 µM
SH-4
  IC50: > 2 µM
NCI-H1355
  IC50: > 2 µM
LAN-6
  IC50: > 2 µM
HEL
  IC50: > 2 µM
NCI-H1092
  IC50: > 2 µM
M14
  IC50: > 2 µM
L-363
  IC50: > 2 µM
TE-1
  IC50: > 2 µM
RXF 393
  IC50: > 2 µM
NCI-H1838
  IC50: > 2 µM
NCI-H446
  IC50: > 2 µM
ES6
  IC50: > 2 µM
SCH
  IC50: > 2 µM
KG-1
  IC50: 1.41 µM
TE-11
  IC50: > 2 µM
LU-134-A
  IC50: > 2 µM
VM-CUB-1
  IC50: > 2 µM
KURAMOCHI
  IC50: > 2 µM
NCI-H630
  IC50: > 2 µM
NKM-1
  IC50: 1.72 µM
Lu-65
  IC50: > 2 µM
LB2518-MEL
  IC50: > 2 µM
MV4-11
  IC50: 1.7 µM
HuP-T4
  IC50: > 2 µM
EKVX
  IC50: > 2 µM
no-11
  IC50: > 2 µM
G-401
  IC50: > 2 µM
COLO-320-HSR
  IC50: > 2 µM
LU-99A
  IC50: > 2 µM
SW982
  IC50: > 2 µM
NCI-H23
  IC50: > 2 µM
IST-MES1
  IC50: > 2 µM
EW-13
  IC50: > 2 µM
NCI-H720
  IC50: > 2 µM

## CC(C)=CC[C@@H](O)C1=CC(=O)c2c(O)ccc(O)c2C1=O [SHIKONIN]
P30-OHK
  IC50: 0.22 µM
KGN
  IC50: 1.31 µM
ATN-1
  IC50: 0.849 µM
NCI-H526
  IC50: 2.64 µM
SJSA-1
  IC50: 5.53 µM
SK-MEL-2
  IC50: 6.33 µM
CAS-1
  IC50: 0.462 µM
MN-60
  IC50: 0.348 µM
EC-GI-10
  IC50: > 16 µM
EFO-21
  IC50: 1.34 µM
KYSE-410
  IC50: 0.752 µM
PANC-08-13
  IC50: 10.4 µM
EW-11
  IC50: 0.447 µM
LU-139
  IC50: 6.26 µM
SK-MEL-1
  IC50: > 16 µM
EFM-19
  IC50: 0.212 µM
KARPAS-299
  IC50: 0.799 µM
GB-1
  IC50: 1.33 µM
RCC10RGB
  IC50: 1.56 µM
OVCAR-4
  IC50: 0.67 µM
PSN1
  IC50: > 16 µM
NCI-H69
  IC50: 6.71 µM
NCI-H1770
  IC50: 0.243 µM
HH
  IC50: 1.12 µM
LS-123
  IC50: 0.538 µM
A498
  IC50: 0.0819 µM
SF-268
  IC50: 5.58 µM
LB2241-RCC
  IC50: 1.29 µM
NH-12
  IC50: 0.85 µM
SK-N-FI
  IC50: 7.69 µM
TGBC1TKB
  IC50: 1.43 µM
SH-4
  IC50: 0.371 µM
NCI-H1355
  IC50: 2.82 µM
LAN-6
  IC50: 3.22 µM
HEL
  IC50: 2.04 µM
NCI-H1092
  IC50: 1.39 µM
M14
  IC50: 1.49 µM
L-363
  IC50: > 16 µM
TE-1
  IC50: 15.8 µM
RXF 393
  IC50: 0.749 µM
NCI-H1838
  IC50: > 16 µM
NCI-H446
  IC50: > 16 µM
ES6
  IC50: 7.88 µM
SCH
  IC50: > 16 µM
KG-1
  IC50: 1.6 µM
TE-11
  IC50: 4.01 µM
LU-134-A
  IC50: 0.81 µM
VM-CUB-1
  IC50: 1.03 µM
KURAMOCHI
  IC50: 3.16 µM
NCI-H630
  IC50: 1.3 µM
NKM-1
  IC50: 0.101 µM
Lu-65
  IC50: > 16 µM
LB2518-MEL
  IC50: 3.28 µM
MV4-11
  IC50: 0.274 µM
HuP-T4
  IC50: 1.36 µM
EKVX
  IC50: 3.67 µM
no-11
  IC50: 0.805 µM
G-401
  IC50: 0.235 µM
COLO-320-HSR
  IC50: 0.384 µM
LU-99A
  IC50: 1.3 µM
SW982
  IC50: 0.0602 µM
NCI-H23
  IC50: > 16 µM
IST-MES1
  IC50: 1.7 µM
EW-13
  IC50: 0.267 µM
NCI-H720
  IC50: > 16 µM
